{
  "source": "patent US20080306076A1",
  "about": "“MODULATION OF CHEMOSENSORY RECEPTORS AND LIGANDS ASSOCIATED THEREWITH” (SENOMYX, INC., priority 2007, published 2008)",
  "key": {"hT1R1 D192A": {"target": "T1, hT1R1 D192A (Homo sapiens, UniProt Q7RTX1, D192A)", "T1 construct": "expressed in transfected cells; host or cells: HEK293, transient transfection", "T1 sequence (Q7RTX1 21-841 D192A)": "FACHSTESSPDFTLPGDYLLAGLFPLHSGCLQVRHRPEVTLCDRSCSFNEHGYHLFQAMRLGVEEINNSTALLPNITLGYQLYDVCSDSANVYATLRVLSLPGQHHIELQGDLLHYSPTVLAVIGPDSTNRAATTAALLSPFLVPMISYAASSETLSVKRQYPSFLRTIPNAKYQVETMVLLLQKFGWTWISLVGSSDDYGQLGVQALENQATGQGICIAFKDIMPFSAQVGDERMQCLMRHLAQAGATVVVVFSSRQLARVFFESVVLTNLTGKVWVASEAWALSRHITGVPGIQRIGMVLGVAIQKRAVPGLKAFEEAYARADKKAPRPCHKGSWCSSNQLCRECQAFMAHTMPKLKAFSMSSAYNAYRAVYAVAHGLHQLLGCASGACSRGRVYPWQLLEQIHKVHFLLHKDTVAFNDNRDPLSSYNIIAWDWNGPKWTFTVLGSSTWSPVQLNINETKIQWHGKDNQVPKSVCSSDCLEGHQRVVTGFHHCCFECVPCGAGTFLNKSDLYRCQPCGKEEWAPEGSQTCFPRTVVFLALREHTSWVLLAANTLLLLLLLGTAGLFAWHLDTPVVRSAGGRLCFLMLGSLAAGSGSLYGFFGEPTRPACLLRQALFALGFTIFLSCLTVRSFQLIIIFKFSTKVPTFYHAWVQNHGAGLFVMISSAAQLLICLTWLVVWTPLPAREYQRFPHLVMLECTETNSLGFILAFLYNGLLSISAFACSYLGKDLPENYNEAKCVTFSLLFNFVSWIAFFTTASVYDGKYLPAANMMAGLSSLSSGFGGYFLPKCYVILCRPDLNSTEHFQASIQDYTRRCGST", "T1 sequence (Q923K1 21-858 partner)": "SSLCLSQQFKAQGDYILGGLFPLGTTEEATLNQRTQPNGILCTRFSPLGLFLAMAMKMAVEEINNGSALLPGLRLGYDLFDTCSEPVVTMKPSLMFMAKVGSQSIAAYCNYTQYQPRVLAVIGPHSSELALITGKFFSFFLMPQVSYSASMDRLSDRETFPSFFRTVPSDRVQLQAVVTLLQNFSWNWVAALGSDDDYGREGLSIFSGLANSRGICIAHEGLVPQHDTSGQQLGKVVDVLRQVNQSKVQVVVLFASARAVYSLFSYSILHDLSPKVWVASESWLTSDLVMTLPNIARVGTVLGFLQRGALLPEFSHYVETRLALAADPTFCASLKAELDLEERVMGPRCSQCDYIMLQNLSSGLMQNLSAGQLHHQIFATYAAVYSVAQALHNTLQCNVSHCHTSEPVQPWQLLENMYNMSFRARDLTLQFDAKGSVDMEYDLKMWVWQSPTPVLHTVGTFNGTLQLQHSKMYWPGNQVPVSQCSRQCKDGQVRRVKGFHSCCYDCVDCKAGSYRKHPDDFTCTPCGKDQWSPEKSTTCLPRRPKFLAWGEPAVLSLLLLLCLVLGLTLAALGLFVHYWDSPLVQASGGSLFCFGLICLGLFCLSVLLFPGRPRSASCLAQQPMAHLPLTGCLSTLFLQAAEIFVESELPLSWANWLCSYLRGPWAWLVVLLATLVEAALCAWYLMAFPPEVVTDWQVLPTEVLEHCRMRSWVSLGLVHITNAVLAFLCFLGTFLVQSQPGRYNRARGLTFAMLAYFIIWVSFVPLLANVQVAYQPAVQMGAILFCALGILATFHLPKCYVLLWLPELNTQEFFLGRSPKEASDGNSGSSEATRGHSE", "test": "Mutagenesis study, hT1R1 mutant D192A", "assay_type": "cell-based", "conditions": "D192 mutant, FIG. 11", "text": "(§1) In order to further define the interaction sites of umami stimuli, we performed site-directed mutagenesis on human T1R1 VFT. The mutagenesis was done using the routine PCR-based method. […] were transiently transfected into HEK293 cell together with the rat T1R3 wild type cDNA, and the transfected cells were characterized using an automated FLIPR machine or a calcium imaging system as described in our previous patent applications."}, "hT1R1 T149S": {"target": "T2, hT1R1 T149S (Homo sapiens, UniProt Q7RTX1, T149S)", "T2 construct": "expressed in transfected cells; host or cells: HEK293, transient transfection", "T2 sequence (Q7RTX1 21-841 T149S)": "T1 sequence (Q7RTX1 21-841 D192A) with T129S, A172D", "T2 sequence (Q923K1 21-858 partner)": "T1 sequence (Q923K1 21-858 partner)", "test": "Mutagenesis study, hT1R1 mutant T149S", "assay_type": "cell-based", "conditions": "0.25 mM of L-Glu, FIG. 12", "text": "as §1"}},
  "note": "Residue numbers refer to the chain shown, from its start.",
  "data": [
    {"smiles": "N[C@@H](CCC(=O)O)C(=O)O", "note": "[L-Glu, L-glutamate]", "values": [
      {"measurement": "activity against L-Glu", "setting": "hT1R1 D192A", "value": "significant reduced activity"},
      {"measurement": "activity against L-Glu compared to the wild type", "setting": "hT1R1 T149S", "value": "increased activity"}
    ]}
  ]
}
